Source: ChEMBL document CHEMBL6096686, “Lanosterol 14α-Demethylase (CYP51)/Heat Shock Protein 90 (Hsp90) Dual Inhibitors for the Treatment of Invasive Candidiasis” (J Med Chem, 2025)
Values after ≈ are worked out from the molar mass of the structure shown. Active and inactive are the calls of the source. No cut-off for these calls is given here.

How the values were obtained:
Nakaseomyces glabratus = experiment: Antifungal activity against Candida glabrata 7804 incubated for 48 hrs by CLSI based liquid microdilution technique; assay type: functional
Candida albicans [1] = experiment: Antifungal activity against Candida albicans SC5314 incubated for 48 hrs by CLSI based liquid microdilution technique; assay type: functional
Cryptococcus neoformans = experiment: Antifungal activity against Cryptococcus neoformans H99 incubated for 72 hrs by CLSI based liquid microdilution technique; assay type: functional
Pichia kudriavzevii = experiment: Antifungal activity against Candida krusei 10153 incubated for 48 hrs by CLSI based liquid microdilution technique; assay type: functional
Candida albicans [2] = experiment: Antifungal activity against Candida albicans SC5314 assessed as decrease in BCR1 mRNA level at 4 ug/ml measured after 24 hrs by real time RT-PCR analysis; assay type: functional, organism-based; conditions: dose 4.0 µg/ml
[3] = molecular target: T1, Lanosterol 14-alpha demethylase (Candida albicans (strain SC5314 / ATCC MYA-2876) (Yeast), UniProt P10613); experiment: Inhibition of CYP51 in Candida albicans SC5314 assessed as accumulation of eburicol at 4 ug/ml measured after 48 hrs by GC-MS analysis; conditions: at 4 µg/mL
T1 sequence (P10613 whole entry): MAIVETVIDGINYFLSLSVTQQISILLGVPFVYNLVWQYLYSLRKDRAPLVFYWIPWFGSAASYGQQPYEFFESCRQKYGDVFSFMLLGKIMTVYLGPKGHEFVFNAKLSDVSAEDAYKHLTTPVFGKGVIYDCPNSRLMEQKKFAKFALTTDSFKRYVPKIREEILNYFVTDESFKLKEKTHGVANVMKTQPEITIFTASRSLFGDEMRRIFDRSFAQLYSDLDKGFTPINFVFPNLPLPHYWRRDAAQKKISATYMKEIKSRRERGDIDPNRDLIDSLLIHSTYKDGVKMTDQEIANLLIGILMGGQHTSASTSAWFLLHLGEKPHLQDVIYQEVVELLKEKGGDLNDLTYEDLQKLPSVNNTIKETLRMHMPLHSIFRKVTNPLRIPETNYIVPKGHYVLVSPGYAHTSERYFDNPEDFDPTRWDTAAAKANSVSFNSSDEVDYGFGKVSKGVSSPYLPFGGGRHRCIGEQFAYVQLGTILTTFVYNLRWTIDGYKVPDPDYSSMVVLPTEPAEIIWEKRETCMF

Candida albicans [4] = experiment: Antifungal activity against Candida albicans SC5314 assessed as decrease in ACE2 mRNA level at 4 ug/ml measured after 24 hrs by real time RT-PCR analysis; assay type: functional, organism-based; conditions: dose 4.0 µg/ml
Candida albicans [5] = experiment: Antifungal activity against Candida albicans SC5314 assessed as decrease in HWP1 mRNA level at 4 ug/ml measured after 24 hrs by real time RT-PCR analysis; assay type: functional, organism-based; conditions: dose 4.0 µg/ml
[6] = molecular target: T1, Lanosterol 14-alpha demethylase; experiment: Inhibition of CYP51 in Candida albicans SC5314 assessed as decrease in ERG27 mRNA level at 4 ug/ml measured after 24 hrs by real time RT-PCR analysis; conditions: at 4 µg/mL
Candida albicans [7] = experiment: Selectivity index, ratio of MIC80 antifungal activity against Candida albicans SC5314 to MIC80 for antifungal activity against Candida albicans SC5314 harboring HSP90 monoallelic knockout; assay type: functional
[8] = molecular target: Heat shock protein 90 homolog (Candida albicans (strain SC5314 / ATCC MYA-2876) (Yeast), UniProt P46598); experiment: Inhibition of HSP90 extracted from Candida albicans SC5314 lysate using FITC-Geldanamycin as substrate incubated for 6 hrs by fluorescence polarization assay; assay type: subcellular
Heat shock protein 90 homolog, sequence (P46598 whole entry): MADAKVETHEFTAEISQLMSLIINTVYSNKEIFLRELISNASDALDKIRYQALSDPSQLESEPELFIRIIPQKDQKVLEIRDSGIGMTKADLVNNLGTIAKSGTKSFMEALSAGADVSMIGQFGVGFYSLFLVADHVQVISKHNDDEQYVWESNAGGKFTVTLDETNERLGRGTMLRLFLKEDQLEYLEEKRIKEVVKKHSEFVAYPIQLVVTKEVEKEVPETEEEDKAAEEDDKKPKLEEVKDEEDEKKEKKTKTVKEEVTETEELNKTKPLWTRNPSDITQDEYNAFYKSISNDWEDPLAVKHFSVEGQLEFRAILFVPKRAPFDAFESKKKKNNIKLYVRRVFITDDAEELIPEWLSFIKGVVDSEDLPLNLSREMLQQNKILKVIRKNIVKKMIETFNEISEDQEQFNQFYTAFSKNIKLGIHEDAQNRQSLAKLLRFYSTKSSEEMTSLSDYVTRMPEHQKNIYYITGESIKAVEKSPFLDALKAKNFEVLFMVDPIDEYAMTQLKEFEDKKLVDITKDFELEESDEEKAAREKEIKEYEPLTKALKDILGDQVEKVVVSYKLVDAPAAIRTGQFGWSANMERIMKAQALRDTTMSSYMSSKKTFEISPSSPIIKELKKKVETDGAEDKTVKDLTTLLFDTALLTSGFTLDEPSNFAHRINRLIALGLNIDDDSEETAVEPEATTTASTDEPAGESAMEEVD

Candida albicans [9] = experiment: Antifungal activity against Candida albicans SC5314 assessed as fungal growth inhibition at 4 ug/ml incubated for 48 hrs; assay type: functional, organism-based; conditions: dose 4.0 µg/ml
Candida albicans [10] = experiment: Inhibition of yeast to hypha transition in Candida albicans SC5314 at 4 ug/ml incubated for 2.5 hrs by inverted microscopy; assay type: functional, organism-based; conditions: dose 4.0 µg/ml
Candida albicans [11] = experiment: Antifungal activity against Candida albicans SC5314 assessed as fungal growth inhibition incubated for 48 hrs by spot-plating method; assay type: functional, organism-based; conditions: dose 4-32 µg/ml
[12] = molecular target: T1, Lanosterol 14-alpha demethylase; experiment: Inhibition of CYP51 in Candida albicans SC5314 assessed as decrease in ERG6 mRNA level at 4 ug/ml measured after 24 hrs by real time RT-PCR analysis; conditions: at 4 µg/mL
Candida albicans [13] = experiment: Antifungal activity against Candida albicans SC5314 assessed as fungal growth inhibition at 32 ug/ml incubated for 48 hrs by spot-plating method relative to control; assay type: functional
Candida albicans [14] = experiment: Antifungal activity against Candida albicans SC5314 harboring HSP90 monoallelic knockout incubated for 48 hrs by CLSI based liquid microdilution technique; assay type: functional
Candida albicans [15] = experiment: Antifungal activity against Candida albicans SC5314 assessed as reduction in fungal growth at 8 ug/ml incubated for 48 hrs (reference value: 8.17 log10CFU/ml); assay type: functional; conditions: dose 8 µg/ml
Candida albicans [16] = experiment: Antifungal activity against Candida albicans SC5314 assessed as decrease in EFG1 mRNA level at 4 ug/ml measured after 24 hrs by real time RT-PCR analysis; assay type: functional, organism-based; conditions: dose 4.0 µg/ml
Candida albicans [17] = experiment: Inhibition of biofilm formation in Candida albicans SC5314 at 4 ug/ml incubated for 24 hrs by XTT reduction method relative to control; assay type: functional
Candida albicans [18] = experiment: Inhibition of biofilm formation in Candida albicans SC5314 at 32 ug/ml incubated for 24 hrs by XTT reduction method relative to control; assay type: functional
Candida albicans [19] = experiment: Antifungal activity against Candida albicans SC5314 assessed as decrease in CPH1 mRNA level at 4 ug/ml measured after 24 hrs by real time RT-PCR analysis; assay type: functional, organism-based; conditions: dose 4.0 µg/ml
Candida albicans [20] = experiment: Antifungal activity against Candida albicans SC5314 infected in immunosuppressed ICR mouse assessed as reduction in fungal burden in kidney at 20 mg/kg, ip treated for 5 days consecutively (reference value: 6.71 log10CFU/ml); assay type: functional; conditions: time 5 day
Candida albicans [21] = experiment: Antifungal activity against Candida albicans SC5314 assessed as decrease in ALS3 mRNA level at 4 ug/ml measured after 24 hrs by real time RT-PCR analysis; assay type: functional, organism-based; conditions: dose 4.0 µg/ml
Heat shock protein HSP90 = Heat shock protein HSP90 (Homo sapiens, UniProt P07900+P08238); experiment: Inhibition of human HSP90 using FITC-Geldanamycin as substrate incubated for 6 hrs by fluorescence polarization assay; assay type: protein assay
Candida albicans [22] = experiment: Inhibition of yeast to hypha transition in Candida albicans SC5314 at 8 ug/ml incubated for 2.5 hrs by inverted microscopy relative to control; assay type: functional
[23] = molecular target: T1, Lanosterol 14-alpha demethylase; experiment: Inhibition of CYP51 in Candida albicans SC5314 assessed as decrease in ERG26 mRNA level at 4 ug/ml measured after 24 hrs by real time RT-PCR analysis; conditions: at 4 µg/mL
[24] = molecular target: T1, Lanosterol 14-alpha demethylase; experiment: Inhibition of CYP51 in Candida albicans SC5314 assessed as decrease in ERG3 mRNA level at 4 ug/ml measured after 24 hrs by real time RT-PCR analysis; conditions: at 4 µg/mL
Candida albicans [25] = experiment: Inhibition of biofilm formation in Candida albicans SC5314 incubated for 24 hrs by XTT reduction method; assay type: functional, organism-based; conditions: dose <= 32.0 µg/ml
Candida albicans [26] = experiment: Antifungal activity against Candida albicans SC5314 assessed as decrease in EAP1 mRNA level at 4 ug/ml measured after 24 hrs by real time RT-PCR analysis; assay type: functional, organism-based; conditions: dose 4.0 µg/ml
Candida albicans [27] = experiment: Inhibition of biofilm formation in Candida albicans SC5314 at 0.5 ug/ml incubated for 24 hrs by XTT reduction method relative to control; assay type: functional
Candida albicans [28] = experiment: Antifungal activity against Candida albicans SC5314 infected in immunosuppressed ICR mouse assessed as reduction in fungal burden in kidney at 5 mg/kg, ip treated for 5 days consecutively (reference value: 6.71 log10CFU/ml); assay type: functional; conditions: time 5 day
Candida albicans [29] = experiment: Antifungal activity against Candida albicans SC5314 assessed as decrease in RLM1 mRNA level at 4 ug/ml measured after 24 hrs by real time RT-PCR analysis; assay type: functional, organism-based; conditions: dose 4.0 µg/ml
Candida albicans [30] = experiment: Antifungal activity against Candida albicans SC5314 assessed as fungal growth inhibition at 4 ug/ml incubated for 48 hrs by spot-plating method; assay type: functional, organism-based; conditions: dose 4.0 µg/ml
Candida albicans [31] = experiment: Antifungal activity against Candida albicans SC5314 infected in immunosuppressed ICR mouse administered intraperitoneally treated for 5 days consecutively; assay type: functional, organism-based; conditions: dose 5-20 mg/kg, route ip, time 5.0 day
[32] = Cytotoxicity against HUVEC cells measured after 72 hrs by CCK8 assay; assay type: toxicity, cell-based; conditions: human
Candida albicans [33] = experiment: Antifungal activity against Candida albicans SC5314 assessed as decrease in ZAP1 mRNA level at 4 ug/ml measured after 24 hrs by real time RT-PCR analysis; assay type: functional, organism-based; conditions: dose 4.0 µg/ml
[34] = Cytotoxicity against human L02 cells measured after 72 hrs by CCK8 assay; assay type: toxicity, cell-based
Candida albicans [35] = experiment: Antifungal activity against Candida albicans SC5314 assessed as decrease in TEC1 mRNA level at 4 ug/ml measured after 24 hrs by real time RT-PCR analysis; assay type: functional, organism-based; conditions: dose 4.0 µg/ml
Candida albicans [36] = experiment: Antifungal activity against Candida albicans SC5314 infected in immunosuppressed ICR mouse assessed as reduction in fungal burden in kidney at 10 mg/kg, ip treated for 5 days consecutively (reference value: 6.71 log10CFU/ml); assay type: functional; conditions: time 5 day

SMILES: CCNC(=O)c1noc(-c2cc(-c3ccc(C)cc3)c(O)cc2O)c1-c1ccc(CN2CCN(C(=O)CCCOc3ccc(CN(C)CC(O)(Cn4cncn4)c4ccc(F)cc4F)cc3)CC2)cc1 (stereo not drawn)
- MIC80 (Nakaseomyces glabratus): 16 mg/L (≈ 16.8 µM)
- MIC80 (Candida albicans [1]): 8 mg/L (≈ 8.38 µM)
- MIC80 (Cryptococcus neoformans): 4 mg/L (≈ 4.19 µM)
- MIC80 (Pichia kudriavzevii): > 64 mg/L

SMILES: CCN(C(=O)c1cc(-c2ccc(C)cc2)c(O)cc1O)c1ccc(CN2CCN(CC(O)(Cn3cncn3)c3ccc(F)cc3F)CC2)cc1 (stereo not drawn)
- Activity (Candida albicans [2]): Active
- inhibition (INH) [3]: Active
- Activity (Candida albicans [4]): Active
- Activity (Candida albicans [5]): Active
- inhibition (INH) [6]: Active
- Ratio (Candida albicans [7]): 16
- IC50 [8]: 0.74 µM
- inhibition (Candida albicans [9]): Active; Activity Was Superior Than Flc
- inhibition (Candida albicans [10]): Active; Inhibitory Effect Was Superior Than Flc
- inhibition (Candida albicans [11]): Dose-dependent-effect
- inhibition (INH) [12]: Active
- MIC80 (Nakaseomyces glabratus): 8 mg/L (≈ 11.7 µM)
- inhibition at 32 µg/mL (Candida albicans [13]): ~100%
- MIC80 (Candida albicans [14]): 0.004 mg/L (≈ 0.00586 µM)
- Activity (Candida albicans [15]): 7.39 log10CFU/ml
- Activity (Candida albicans [16]): Active
- inhibition at 4 µg/mL (Candida albicans [17]): > 80%
- inhibition at 32 µg/mL (Candida albicans [18]): 100%
- Activity (Candida albicans [19]): Active
- Activity (Candida albicans [20]): 5.47 log10CFU/ml
- Activity (Candida albicans [21]): Active
- IC50 (Heat shock protein HSP90): 6.63 µM
- inhibition at 8 µg/mL (Candida albicans [22]): 100%
- inhibition (INH) [23]: Active
- inhibition (INH) [24]: Active
- inhibition (Candida albicans [25]): Dose-dependent-effect; Result Indicated That Compound Was More Potent Than Flc
- Activity (Candida albicans [26]): Active
- inhibition at 0.5 µg/mL (Candida albicans [27]): > 50%
- Activity (Candida albicans [28]): 6.14 log10CFU/ml
- Activity (Candida albicans [29]): Active
- inhibition (Candida albicans [30]): Active; Activity Was Superior Than Flc
- MIC80 (Candida albicans [1]): 0.063 mg/L (≈ 0.0923 µM)
- Activity (Candida albicans [31]): Dose-dependent-effect
- IC50 at 72 h [32]: 2.1 µM
- MIC80 (Cryptococcus neoformans): 4 mg/L (≈ 5.86 µM)
- Activity (Candida albicans [33]): Active
- IC50 at 72 h [34]: 2.1 µM
- Activity (Candida albicans [35]): Active
- MIC80 (Pichia kudriavzevii): 16 mg/L (≈ 23.4 µM)
- Activity (Candida albicans [36]): 5.83 log10CFU/ml

SMILES: OC(Cn1cncn1)(Cn1cncn1)c1ccc(F)cc1F [FLUCONAZOLE]
- inhibition (INH) [3]: Active
- MIC80 (Nakaseomyces glabratus): 16 mg/L (≈ 52.2 µM)
- MIC80 (Candida albicans [1]): 0.5 mg/L (≈ 1.63 µM)
- MIC80 (Cryptococcus neoformans): 1 mg/L (≈ 3.27 µM)
- MIC80 (Pichia kudriavzevii): 64 mg/L (≈ 209 µM)

SMILES: CCNC(=O)c1noc(-c2cc(-c3ccc(C)cc3)c(O)cc2O)c1-c1ccc(CN2CCN(C(=O)CCCCCOc3ccc(CN(C)CC(O)(Cn4cncn4)c4ccc(F)cc4F)cc3)CC2)cc1 (stereo not drawn)
- MIC80 (Nakaseomyces glabratus): 16 mg/L (≈ 16.3 µM)
- MIC80 (Candida albicans [1]): 4 mg/L (≈ 4.07 µM)
- MIC80 (Cryptococcus neoformans): 4 mg/L (≈ 4.07 µM)
- MIC80 (Pichia kudriavzevii): > 64 mg/L
